# Activity calls are given as the source filed them.
# Tests used:
# [1] = viability loss in HepG2 hepatoma cells – cell-based, ATP luminescence, cherry-pick, activator set 2, cytotoxicity control, dose response (AID 1053143); assay type: functional
# [2] = tested on: Streptococcus sp. 'group A'; assay: Streptococcus pyogenes SK(-)GAS viability under kanamycin – luminescence, BacTiterGlo, confirmation, counter-screen for streptokinase expression inhibitor project, dose response (AID 1900); assay type: functional, organism-based
# Streptokinase A = molecular target: T1, Streptokinase A (Streptococcus pyogenes serotype M1, UniProt P10520); assay: viability-normalized secreted streptokinase activity reduction – plasminogen activation absorbance, OD405, dose response (AID 1914); assay type: functional, Streptococcus pyogenes M1 GAS;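 note: secreted streptokinase activity via plasminogen activation per viability signal from cell pellet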
# T1 sequence (P10520 whole entry): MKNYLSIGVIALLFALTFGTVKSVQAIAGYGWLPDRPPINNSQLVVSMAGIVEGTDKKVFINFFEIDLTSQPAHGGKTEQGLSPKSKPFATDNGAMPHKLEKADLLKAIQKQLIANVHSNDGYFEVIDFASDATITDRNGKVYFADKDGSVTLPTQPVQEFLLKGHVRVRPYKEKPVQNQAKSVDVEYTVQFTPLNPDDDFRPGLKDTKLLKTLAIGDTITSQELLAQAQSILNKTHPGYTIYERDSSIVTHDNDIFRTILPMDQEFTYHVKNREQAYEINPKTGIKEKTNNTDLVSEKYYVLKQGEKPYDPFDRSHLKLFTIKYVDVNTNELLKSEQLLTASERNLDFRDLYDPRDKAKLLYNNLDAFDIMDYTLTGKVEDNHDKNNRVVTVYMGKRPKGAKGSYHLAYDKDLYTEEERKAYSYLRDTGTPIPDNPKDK
# Streptococcus = assay: GAS UMAA2166 growth inhibition – luminescence, BacTiterGlo, counter-screen for streptokinase expression inhibitor project, dose response (AID 1915); assay type: functional, organism-based;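 note: potency for reduction of bacterial viability or growth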
# cells [3] = settings: HEK293
# Kallikrein-7 = Kallikrein-7 (Homo sapiens, UniProt P49862); assay: Fluorescence Intensity-based biochemical primary high throughput dose response assay to identify activators of kallikrein-7 (K7) zymogen.
# Major prion protein = Major prion protein (Homo sapiens, UniProt P04156); assay type: functional, cell-based
# cells [4] = assay: cells
# [5] = molecular target: Photoreceptor-specific nuclear receptor (Homo sapiens, UniProt Q9Y5X4); assay type: functional, cell-based;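 note: CHO-S cells with Gal4-NCOR and VP16-NR2E3 two-hybrid luciferase reporter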
# [6] = viability loss in HEK293 kidney cells – cell-based, cherry-picks, set 5, cytotoxicity control, dose response (AID 1053117); assay type: functional
# [7] = viability loss in A549 lung cancer cells – cell-based, cherry-picks, […], cytotoxicity control, dose response (AID 1053119); assay type: functional
# [8] = blockers of FN fibrillogenesis by fibroblasts – AH1F cells, Alexa488-FN fluorescence, cherry-picks, dose response (AID 1035475); assay type: functional, cell-based
# Galanin receptor type 3 = Galanin receptor type 3 (Homo sapiens, UniProt O60755); assay: Fluorescence-based cell-based primary high throughput dose response assay to identify antagonists of the Galanin Receptor 3 (GalR3).; assay type: functional
# cells [9] = assay type: functional, cell-based; settings: HEK-CNG
# [10] = molecular target: COUP transcription factor 2 (Homo sapiens, UniProt P24468); assay: Luminescence-based cell-based high throughput dose response assay to identify inhibitors of COUP-TFII (NR2F2).; assay type: functional;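 note: HEK293 cells transiently cotransfected with COUP-TFII expression vector and reporter; luciferase reporter luminescence driven by COUP-TFII from the pX2-168 reporter plasmid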
# Paired box protein Pax-8 = Paired box protein Pax-8 (Homo sapiens, UniProt Q06710); assay: PAX8 transcriptional activity inhibition in RMG-I – RMG-I cells, luciferase, cherry-pick, dose response (AID 687027); assay type: functional, cell-based;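 note: luciferase reporter driven by Pax8 target thyroperoxidase promoter measured by SteadyGlo luminescence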
# [11] = toxicity toward immortalized ovarian surface epithelium – cell-based, plate reader, dry powder samples, cytotoxicity control for PAX8 inhibitor project, dose response (AID 743045); assay type: functional
# [12] = CMV-driven luciferase expression suppression in HEK293 – cell-based, luminescence, dry powder, counter-screen for Pax8 inhibitor project, dose response (AID 743020); assay type: functional
# [13] = OVCAR-3 cell viability loss – plate reader, dry powder samples, PAX8 inhibitor project, dose response (AID 743044); assay type: functional, cell-based
# [14] = OVCAR8 cell viability loss – plate reader, dry powder samples, PAX8 project, dose response (AID 743197); assay type: functional, cell-based; settings: OVCAR-8
# [15] = inhibitors acting on PAX2 in cells – cell-based, plate reader, dry powder samples, selectivity assay for PAX8 inhibitor project, dose response (AID 743048); assay type: functional;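 note: HEK293 cells carrying a WT1 promoter luciferase reporter driven by expressed Pax2; potency is for inhibition of Pax2 driven reporter signal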
# [16] = PAX5 cellular inhibition readout – cell-based, plate reader, dry powder samples, selectivity assay for PAX8 inhibitor project, dose response (AID 743047); assay type: functional;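 note: HEK293 cells carrying a Pax5 driven CD19 promoter luciferase reporter; potency of inhibitors that lower reporter luminescence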
# [17] = OVCAR4 cell viability loss – plate reader, dry powder, SA11, cytotoxicity control for PAX8 inhibitor project, dose response (AID 743150); assay type: functional, cell-based; settings: OVCAR-4
# [18] = OV-90 cell viability loss – plate reader, dry powder, SA8, PAX8 inhibitor project, dose response (AID 743149); assay type: functional, cell-based
# [19] = PAX8-dependent cell viability loss – plate reader, dry powder, dose response (AID 743049); assay type: functional, cell-based
structure (smiles),measurement,setting,value
O=c1c2ccccc2oc2cc(-c3ccc(CN4CCOCC4)cc3)ccc12,AC50,[1],26 µM (active)
CC(C)(C)[C@H]1CCC(=O)N([C@H](CSc2ccccc2)Cc2ccccc2)CC1,EC50,[2],7.1 µM (active)
same,EC50,Streptokinase A,23.2 µM (active)
same,EC50,Streptococcus,10.3 µM (active)
same,AC50,cells [3],> 52 µM (inactive)
CN1CCSc2ccc(C(=O)NCc3cccc(F)c3)cc21,EC50,Kallikrein-7,> 69.5 µM (inactive)
O=C(O)CSc1ncnc2scc(-c3ccccc3)c12,IC50,Major prion protein,5.04 µM (active)
same,IC50,cells [4],> 138 µM (inactive)
CN1CCN(C(=O)c2cccc(-c3cnc4cnc(-c5ccccc5Oc5ccccc5)cn34)c2)CC1,IC50,[5],1.72 µM (active)
same,AC50,[6],47.8 µM (active)
same,AC50,[7],> 52 µM (inactive)
same,AC50,[8],5.86 µM (active)
OC[C@@H]1CN(Cc2ccc(-c3ccccc3)cc2)C[C@H](n2cnc3c(NC4CCCC4)ncnc32)O1,IC50,Galanin receptor type 3,0.349 µM (active)
same,EC50,cells [9],> 29.9 µM (inactive)
same,IC50,[10],6.28 µM (active)
O=C(Nc1ccc(F)cc1)N1CC(=O)N2[C@@H](CO)[C@H](c3ccc(-c4ccc(F)cc4)cc3)[C@@H]2C1,AC50,Paired box protein Pax-8,6.32 µM (active)
same,AC50,[11],36.7 µM (active)
same,AC50,[12],34.5 µM (active)
same,AC50,[13],18.1 µM (active)
same,AC50,[14],25.6 µM (active)
COc1cccc(-c2ccc([C@H]3[C@@H](CO)N(C(=O)Cc4ccccc4)[C@H]3C#N)cc2)c1,AC50,Paired box protein Pax-8,19.5 µM (active)
same,AC50,[15],34.4 µM (active)
same,AC50,[16],6.07 µM (active)
same,AC50,[17],10.8 µM (active)
same,AC50,[18],> 70 µM (inactive)
same,AC50,[19],25.5 µM (active)

# Source: ChEMBL document CHEMBL1201862, “PubChem BioAssay data set” (2004)
